{"source": "patent US20190282673A1", "about": "“STAPHTAME ACTIVITY ON BIOFILMS” (priority 2016, published 2019)", "key": {"[1]": {"test_system": "S. epidermidis", "test": "MIC and checkerboard synergy (broth microdilution) on planktonic cells", "assay_type": "cell-based, Staphylococcus epidermidis", "details": "Staphylococcus epidermidis", "method": "Bacterial cultures at a final cell number of 5×10^5 CFU/mL was added to wells of 96-well microtiter plates (precoated with 0.5% BSA), containing two-fold dilutions of P128 and the second drug in cation adjusted Mueller Hinton Broth (CAMHB). The plates were incubated at 37° C. for 24 h and the individual MICs and the combination MICs were read. The fractional inhibitory concentration index (FICI) was determined using the following equation: FICI=(MIC of drug A in the combination/MIC of drug A alone)+(MIC of drug B in the combination/MIC of drug B alone). The combination was considered to be synergistic when the FICI was ≤0.5; additive when FICI was 0.5-1.0; indifferent when FICI was 1-4 and antagonistic when FICI≥4.\nS. epidermidis culture at a final cell number of 5×10^5 CFU/mL was added to wells of 96-well microtiter plates (precoated with 0.5% BSA), containing two-fold dilutions of P128 and either Daptomycin or Oxacillin in cation adjusted Mueller Hinton Broth (CAMHB). CAMHB was supplemented with 50 µg/mL Ca^++ for daptomycin assay. The plates were incubated at 37° C. for 24 h and the individual MICs and the combination MICs were read. The fractional inhibitory concentration index (FICI) was determined using the following equation: FICI=(MIC of drug A in the combination/MIC of drug A alone)+(MIC of drug B in the combination/MIC of drug B alone). The combination was considered to be synergistic when the FICI was ≤0.5; additive when FICI was between 0.5-1.0; indifferent when FICI was between 1-4 and antagonistic when FICI was ≥4. The experiments were performed in triplicate and repeated twice."}, "[2]": {"test_system": "S. aureus strains BK18 and B9377", "test": "Generation and confirmation of antibiotic persisters (CFU over time)", "assay_type": "cell-based, Staphylococcus aureus", "details": "for CFU/mL, generation of persisters / CFU/mL, confirmation of persisters (regrown, re-exposed): Vancomycin 100X; for CFU/mL, generation of persisters: Daptomycin 50X MIC; for CFU/mL, confirmation of persisters (regrown, re-exposed): Daptomycin 50×", "method": "(§1) Persisters of S. aureus BK18 and B9377 and S. epidermidis strain B9470 were generated as per protocol described by Lechner, et al (Staphylococcus aureus persisters tolerant to bactericidal antibiotics. Lechner, et al. (2012) J Mol Microbiol Biotechnol; 22(4):235-44). Briefly, colonies were suspended in LB broth and allowed to grow at 37° C., 200 rpm for ˜2 hours. The cultures were pelleted, resuspended in MHB and OD600 was adjusted to 0.5 to 1.0 OD (˜2 to 5×10^8 CFU/mL). […] The test tubes were incubated at 37° C., 200 rpm, and 250 μL was sampled out at 4, 8, and 24 hr time points. This aliquot was pelleted, washed in saline and resuspended in equal volume of saline, diluted and plated on LB agar. Rapid decrease in CFUs, followed by rather stable values for up to 24 hrs, indicated the presence of Daptomycin/Vancomycin tolerant persisters.\n(§2) After sampling for P128 and antibiotic activity, the rest of the sample was pelleted, washed in saline and resuspended into fresh media (LB). Allowed to grow at 37° C., 200 rpm until it reaches 1 OD and then the same steps followed as done for generation of persisters. A biphasic growth curve similar to that obtained during generation of persisters would indicate the tolerance to be phenotypic and not genotypic."}, "[3]": {"test_system": "S. epidermidis strain B9470", "test": "Generation and confirmation of antibiotic persisters (CFU over time)", "assay_type": "cell-based, Staphylococcus epidermidis", "details": "for CFU/mL, generation of persisters: Vancomycin 50X, Daptomycin 10X MIC; for CFU/mL, confirmation of persisters (regrown, re-exposed): head prints Vancomycin 100X, Daptomycin 50×", "method": "as §1, §2"}, "[4]": {"test_system": "MRSA MW2 biofilm on catheter", "test": "In vivo biofilm on catheter implanted subcutaneously in neutropenic mice", "details": "Table VB2: Daptomycin 12.5 mg/kg sc 1 dose per day for 3 days; P128 800 μg per dose sc 3 doses/day for 3 days; or both", "quoted_text": "Eight-nine week old female BALB/c mice 25 g were rendered neutropenic with cyclophosphamide and were operated under ketamine-xylazine anesthesia. A 1-cm incision was made in the dorsal neck surface by aseptic technique and subcutaneous pouch was created. Catheter segments of 1 cm length pre-incubated with MRSA MW2 suspension (6×10^3 CFUs/mL) for 4 hrs, were placed in the subcutaneous space and the wounds were closed with suture thereafter. As uninfected control, one group of mice were surgically operated and a sterile catheter segment was placed in the cavity. At 24 hours post-catheter implantation, mice were treated with P128 (800 μg per animal, subcutaneously) or with the placebo (saline). Treatments were given thrice a day at 2 hr intervals for three days and 1 hr after the last treatment, the catheters were removed, biofilms were harvested and CFUs recovered were plated on culture media and enumerated. Catheters from a subset of animals were stained with 0.1% safranin, (which stains the bacteria) for 5 min.\nFor evaluation of synergy with daptomycin, mouse model of biofilm described above was used with few modifications. Eight-nine week old female BALB/c mice 25 g were rendered neutropenic with cyclophosphamide and were operated under ketamine-xylazine anesthesia. A 1-cm incision was made in the dorsal neck surface by aseptic technique and subcutaneous pouch was created. Catheter segments measuring 1 cm were placed in the subcutaneous space, and the wounds closed with suture. At 72 hours post-implantation. MRSA MW2 bacterial inoculum (2.1×10^7 CFU per animal) was injected subcutaneously onto the catheter. At 24 hrs post-challenge, animals were treated with either P128 (800 μg per animal, subcutaneous), or daptomycin (12.5 mg/kg, subcutaneous) or a combination of both. Daptomycin was given once every day for three days whereas P128 was administered thrice a day at 2 hr interval for three days. 1 hr after the last treatment, animals were euthanized and catheters were collected and recovered CFUs were enumerated.\nBiofilms were also visualized by staining the catheters with 0.1% safranin."}}, "note": "“And” between values parts separate entries of the source, which are not always exact repeats. Equal entries are not always repeated. Where two headings read alike, the source gives them in different places.", "data": [{"smiles": "CCCCCCCCCC(=O)N[C@@H](Cc1c[nH]c2ccccc12)C(=O)N[C@H](CC(N)=O)C(=O)N[C@@H](CC(=O)O)C(=O)N[C@@H]1C(=O)NCC(=O)N[C@@H](CCCN)C(=O)N[C@@H](CC(=O)O)C(=O)N[C@H](C)C(=O)N[C@@H](CC(=O)O)C(=O)NCC(=O)N[C@H](CO)C(=O)N[C@@H]([C@H](C)CC(=O)O)C(=O)N[C@@H](CC(=O)c2ccccc2N)C(=O)O[C@@H]1C", "note": "[Daptomycin, daptomycin]", "values": [{"measurement": "MIC", "setting": "[1]; ATCC12228, S. epidermidis ATCC 12228, read-out: MIC (drug alone)", "result": 1, "unit": "µg/mL"}, {"measurement": "MIC", "setting": "[1]; S. epidermidis B9467, read-out: MIC (drug alone)", "result": 2, "unit": "µg/mL"}, {"measurement": "MIC", "setting": "[1]; S. epidermidis B9468, read-out: MIC (drug alone)", "result": 0.5, "unit": "µg/mL"}, {"measurement": "MIC", "setting": "[1]; S. epidermidis B9471, read-out: MIC (drug alone)", "result": 2, "unit": "µg/mL"}, {"measurement": "MIC", "setting": "[1]; S. epidermidis B9472, read-out: MIC (drug alone)", "result": 2, "unit": "µg/mL"}, {"measurement": "MIC", "setting": "[1]; S. epidermidis strains of Tables 7 and 8, read-out: MIC over the strains", "result": "0.5 to 2", "unit": "µg/mL"}, {"measurement": "CFU/mL, generation of persisters", "setting": "[2]; B9377, 0 h", "result": "2.5 × 10^8 CFU/mL"}, {"measurement": "CFU/mL, confirmation of persisters (regrown, re-exposed)", "setting": "[2]; B9377, 0 h", "result": "2.5 × 10^8 CFU/mL"}, {"measurement": "CFU/mL, generation of persisters", "setting": "[2]; B9377, 4 h", "result": "4 × 10^3 CFU/mL"}, {"measurement": "CFU/mL, confirmation of persisters (regrown, re-exposed)", "setting": "[2]; B9377, 4 h", "result": "6 × 10^3 CFU/mL"}, {"measurement": "CFU/mL, generation of persisters", "setting": "[2]; B9377, 8 h", "result": "1 × 10^3 CFU/mL"}, {"measurement": "CFU/mL, confirmation of persisters (regrown, re-exposed)", "setting": "[2]; B9377, 8 h", "result": "1 × 10^3 CFU/mL"}, {"measurement": "CFU/mL, generation of persisters", "setting": "[2]; B9377, 24 h", "result": "5.5 × 10^3 CFU/mL"}, {"measurement": "CFU/mL, confirmation of persisters (regrown, re-exposed)", "setting": "[2]; B9377, 24 h", "result": "9 × 10^2 CFU/mL"}, {"measurement": "CFU/mL, generation of persisters", "setting": "[2]; BK18, 0 h", "result": "2 × 10^8 CFU/mL"}, {"measurement": "CFU/mL, confirmation of persisters (regrown, re-exposed)", "setting": "[2]; BK18, 0 h", "result": "1 × 10^8 CFU/mL"}, {"measurement": "CFU/mL, generation of persisters", "setting": "[2]; BK18, 4 h", "result": "3 × 10^3 CFU/mL"}, {"measurement": "CFU/mL, confirmation of persisters (regrown, re-exposed)", "setting": "[2]; BK18, 4 h", "result": "3 × 10^2 CFU/mL"}, {"measurement": "CFU/mL, generation of persisters", "setting": "[2]; BK18, 8 h", "result": "1 × 10^3 CFU/mL"}, {"measurement": "CFU/mL, confirmation of persisters (regrown, re-exposed)", "setting": "[2]; BK18, 8 h", "result": "1 × 10^2 CFU/mL"}, {"measurement": "CFU/mL, generation of persisters", "setting": "[2]; BK18, 24 h", "result": "5 × 10^3 CFU/mL"}, {"measurement": "CFU/mL, confirmation of persisters (regrown, re-exposed)", "setting": "[2]; BK18, 24 h", "result": "6 × 10^2 CFU/mL"}, {"measurement": "Drop in CFU at the end of 4 h treatment", "setting": "[2]; generation of persisters", "result": 5, "unit": "log"}, {"measurement": "CFU/mL, generation of persisters", "setting": "[3]; B9470, 0 h", "result": "3.2 × 10^7 CFU/mL"}, {"measurement": "CFU/mL, confirmation of persisters (regrown, re-exposed)", "setting": "[3]; B9470, 0 h", "result": "1 × 10^7 CFU/mL"}, {"measurement": "CFU/mL, generation of persisters", "setting": "[3]; B9470, 2 h", "result": "1 × 10^7 CFU/mL"}, {"measurement": "CFU/mL, confirmation of persisters (regrown, re-exposed)", "setting": "[3]; B9470, 2 h", "result": "9 × 10^4 CFU/mL"}, {"measurement": "CFU/mL, generation of persisters", "setting": "[3]; B9470, 4 h", "result": "2.3 × 10^6 CFU/mL"}, {"measurement": "CFU/mL, confirmation of persisters (regrown, re-exposed)", "setting": "[3]; B9470, 4 h", "result": "4 × 10^3 CFU/mL"}, {"measurement": "CFU/mL, generation of persisters", "setting": "[3]; B9470, 8 h", "result": "5 × 10^5 CFU/mL"}, {"measurement": "CFU/mL, confirmation of persisters (regrown, re-exposed)", "setting": "[3]; B9470, 8 h", "result": "6 × 10^2 CFU/mL"}, {"measurement": "CFU/mL, generation of persisters", "setting": "[3]; B9470, 24 h", "result": "3 × 10^6 CFU/mL"}, {"measurement": "CFU/mL, confirmation of persisters (regrown, re-exposed)", "setting": "[3]; B9470, 24 h", "result": "5 × 10^3 CFU/mL"}, {"measurement": "CFU recovered from catheter biofilm, individual animals", "setting": "[4]", "result": "4.9 CFU (Log10)/ml and 2.6 CFU (Log10)/ml and 3.0 CFU (Log10)/ml and 2.7 CFU (Log10)/ml"}]}]}
